From article PMC5753767 (Bioorganic & medicinal chemistry letters, 2017)
“Also recorded” adds a separate entry of the source.

Experiments:
P. falciparum Dd2 = type: cell-based, Plasmodium falciparum; details: chloroquine-resistant Dd2 strain of P. falciparum
Caco-2 cancer cell line = details: cited from earlier work
HT-29 cancer cell line = details: cited from earlier work
A2780 ovarian cells = test: Antiproliferative activity against A2780 ovarian cells; type: cell-based

Compound | Antiplasmodial activity (in words) (P. falciparum Dd2) | Cytotoxicity IC50 Caco-2 (Caco-2 cancer cell line) | Cytotoxicity IC50 HT-29 (HT-29 cancer cell line) | Activity against human A2780 cells (in words) (A2780 ovarian cells) | IC50 (Caco-2 cancer cell line; read-out: Cytotoxicity IC50 Caco-2, Caco-2 cancer cell line) [µM] | IC50 (HT-29 cancer cell line; read-out: Cytotoxicity IC50 HT-29, HT-29 cancer cell line) [µM]
COC1=CC(=O)[C@@]23CCN(Cc4c2cc2c(c4OC)OCO2)[C@@H]3C1 [Compound 2, distichamine] | little inhibitory activity |  |  |  |  | 
COc1c2c(cc3c1OCO3)[C@]13C=C[C@H](OC)C[C@H]1[N@](C2)C[C@H]3OC(C)=O [Compound 3, 11-O-acetylambelline] |  | inactive | inactive |  |  | 
COc1c2c(cc3c1OCO3)[C@]13C=C[C@H](OC)C[C@H]1[N@](C2)C[C@H]3O [Compound 4, ambelline] | moderate to good antiplasmodial activity |  |  | lack of activity |  | 
CC(=O)O[C@@H]1CC=C2CCN3Cc4cc5c(cc4[C@H]1[C@@H]23)OCO5 [Compound 5, acetylcaranine] | strong antiplasmodial activity; also recorded: moderate to good antiplasmodial activity |  |  | lack of activity | 29.5 | 19.2
